Results: US4085096A, “Hexapeptides and methods for their production” (Parke, Davis & Company, priority 1976, dated 1978)
Values joined by “and” are separate entries in the source; they are usually repeats but may differ in a detail not shown here. Equal values may be shown once.

System: LRF (luteinizing hormone releasing factor) induced luteinizing hormone (LH) release
Assay: In vitro LRF antagonist test in rat anterior pituitary cell cultures
Type: cell-based
Conditions: for % LH Release Inhibition: test compound Molar Conc. 1 × 10^-6
From the text: Hexapeptides of this invention were screened for LRF antagonist activity in vitro using rat anterior pituitary cell cultures as described by Vale et. al. [Endocrinology, 91, 562 (1972)]. The inhibition of LRF (luteinizing hormone releasing factor) induced luteinizing hormone (LH) release into the culture medium is the endpoint in this in vitro bioassay.

[1] = test compound Molar Conc. 1 × 10^-6, LH released into culture medium

| Substance | LH Value (LRF Control, Molar Conc. 2.5 × 10^-10) [ng/mL] | LH Value (LRF Control, Molar Conc. 3.5 × 10^-10) | % LH Release Inhibition [%] | LH Value [1] [ng/mL] |
| --- | --- | --- | --- | --- |
| LRF: luteinizing hormone releasing factor; stimulates secretion of luteinizing hormone from the anterior pituitary; used as stimulus control (QHWSYGLRPG; Gonadoliberin-1; UniProt P01148 24-33, looked up) [reference compound] | 38.98 | 66.03 ng/mL and 35.60 ng/mL | – | – |
| N^α -Benzyloxycarbonyl-L-glutaminyl-L-tryptophyl-N^im -benzyl-L-histidyl-O-benzyl-L-tyrosyl-O-benzyl-L-seryl-D-alanine methyl ester | – | – | 86 | 13.53 |
| N^α -t-Butoxycarbonyl-L-tryptophyl-N^im -benzyl-L-histidyl-O-benzyl-L-tyrosyl-O-benzyl-L-seryl-L-prolyl-D-alanine N-ethylamide | – | – | 100 | 5.57 |
| N^α -t-Butoxycarbonyl-N^im -benzyl-L-histidyl-L-tryptophyl-N^im -benzyl-L-histidyl-O-benzyl-L-tyrosyl-O-benzyl-L-seryl-D-alanine N-ethylamide | – | – | 73 | 24.80 |
